Earlier results as cited in patent US20220211661A1, “GREEN TEA CATECHINS EUTECTIC SYSTEM” (ASSISTANCE PUBLIQUE - HOPITAUX DE PARIS, priority 2019, published 2022).

Settings: after 1-h ultra violet irradiation

(-)-epigallocatechin-3-gallate [EGCG]
EGCG decomposed: 70%
